Measured values reported in publication PMC6435540, “LipG a bifunctional phospholipase/thioesterase involved in mycobacterial envelope remodeling” (Bioscience Reports, 2018).
≈ marks a conversion by molar mass, not a printed value. Entries after “also recorded” stand apart in the source; their conditions may differ. Where two headings read alike, the source gives them in different places.

Experiments:
[1] = system: intramacrophagic M. tuberculosis; parameters: method as in PMID 28924204, PMID 30292819; conditions: infected macrophages; ref [28],[42]; cited from earlier work
[2] = system: extracellular M. tuberculosis; conditions: cited from earlier work; for Activity against extracellular M. tuberculosis (in words): growth in vitro, ref [28],[42]; for Activity against extracellularly growing M. tuberculosis (in words): ref [27],[28]
rLipGMTB = experiment: Inhibition of rLipGMTB, enzyme-inhibitor pre-incubation method, residual activity on pNP-C6; type: biochemical; conditions: for xI50: inhibitor molar excess leading to 50% enzyme inhibition; for xI50 / % inhibition xI = 4 / % inhibition xI = 100: 30-min incubation at 25°C, substrate pNP-C6; for % inhibition xI = 4: inhibitor molar excess xI = 4; for % inhibition xI = 100: inhibitor molar excess xI = 100; for Inhibitory effect on rLipGMTB (in words): pure rLipGMTB, molar excess up to xI = 100
M. smegmatis lipGMS::Hyg = experiment: microbe, parasite or virus in culture; type: cell-based; conditions: for MIC50: Mycolicibacterium smegmatis
M. smegmatis WT = experiment: REMA susceptibility testing, WT strain
Description: Susceptibility testing was performed using the Middlebrook 7H9 broth microdilution method. All assays for each strain were carried out at least in triplicate. MICs against the various M. smegmatis bacterial strains were determined in 96-well flat-bottom Nunclon Delta Surface microplates with lid (Thermo Fisher Scientific) using REMA method [59]. Briefly, log-phase bacteria were diluted to a cell density of 5 × 10^6 cells/ml in 7H9-S medium. […] Growth controls containing no inhibitor (i.e., bacteria only), inhibition controls containing 50 μg/ml kanamycin and sterility controls (i.e. medium only) without inoculation were also included. Plates were incubated at 37°C in a humidity chamber [60] to prevent evaporation for 3–5 days. Then, 20 µl of a 0.02% (w/v) resazurin solution was added to each well, and the plates were incubated at 37°C for color change from blue to pink or violet and for a reading of fluorescence units (FU). Fluorescence corresponding to the resazurin reduction to its metabolite resorufin was quantitated using a Tecan Spark 10M multimode microplate reader (Tecan Group Ltd, France) with excitation at 530 nm and emission at 590 nm. Fluorometric MICs were determined by fitting the RFU% sigmoidal dose–response curves [28, 29] in Kaleidagraph 4.2 software (Synergy Software). MIC values determined as the lowest compound concentrations inhibiting 50% of growth were defined as the MIC50.

[3] = system: M. smegmatis lipGMS::Hyg Comp; experiment: microbe, parasite or virus in culture; type: cell-based; conditions: for Fold change compared with WT: MIC50 of lipGMS::Hyg Comp strain versus WT; for MIC50: Mycolicibacterium smegmatis
[4] = system: M. smegmatis lipGMS::Hyg CompMTB; experiment: microbe, parasite or virus in culture; type: cell-based; conditions: for Fold change compared with WT: MIC50 of lipGMS::Hyg CompMTB strain versus WT; for MIC50: Mycolicibacterium smegmatis
[5] = Mycolicibacterium smegmatis, WT strain, REMA, concentration leading to 50% growth inhibition
[6] = WT strain, REMA, concentration leading to 50% growth inhibition

| Structure (SMILES) | Activity against intramacrophagic M. tuberculosis (in words) [1] | Activity against extracellular M. tuberculosis (in words) [2] | xI50 (rLipGMTB) | % inhibition xI = 4 (rLipGMTB) [%] | % inhibition xI = 100 (rLipGMTB) [%] | Inhibitory effect on rLipGMTB (in words) (rLipGMTB) | MIC50 (M. smegmatis lipGMS::Hyg) [µg/mL] | MIC50 (M. smegmatis WT; [5]) [µg/mL] | Fold change compared with WT [3] | MIC50 [3] [µg/mL] | Fold change compared with WT [4] | MIC50 [4] [µg/mL] | MIC50 (M. smegmatis WT; [6]) [µg/mL] | MIC50 (M. smegmatis WT; Mycolicibacterium smegmatis) [µg/mL] | MIC50 ([3]; lipGMS::Hyg Comp strain, REMA, concentration leading to 50% growth inhibition, read-out: MIC50) [µg/mL] | Activity against extracellularly growing M. tuberculosis (in words) [2] | MIC50 ([4]; lipGMS::Hyg CompMTB strain, REMA, concentration leading to 50% growth inhibition, read-out: MIC50) [µg/mL] | Fold change compared with WT (M. smegmatis lipGMS::Hyg; MIC50 of lipGMS::Hyg strain versus WT) [×] |
| --- | --- | --- | --- | --- | --- | --- | --- | --- | --- | --- | --- | --- | --- | --- | --- | --- | --- | --- |
| CCCCCCCCCCC1CCP(=O)(OC)OC(C)=C1C(=O)OC (stereo not drawn) [CyC7β] | strong activity | strong activity | 48.1 | 7.9 ± 0.72 | 57.6 ± 2.0 | very weak inhibitory effects | – | – | – | – | – | – | – | – | – | – | – | – |
| CC(C)COc1nn(-c2ccc(Oc3ccccc3)cc2)c(=O)o1 [iBpPPOX] | strong activity | strong activity | 14.7 | 40.5 ± 3.1 | 60.6 ± 0.22 | – | – | – | – | – | – | – | – | – | – | – | – | – |
| CCCCCCCCCCC[C@@H](C[C@@H]1OC(=O)[C@H]1CCCCCC)OC(=O)[C@H](CC(C)C)NC=O [Orlistat, reference compound] | – | – | 15.2 | 10.8 ± 0.17 | 69.5 ± 5.3 | moderate inhibitory activity | 6.5 (≈ 13.1 µM) | 0.97 (≈ 1.96 µM) | ×1.3 | 1.2 (≈ 2.42 µM) | ×1.6 | 1.6 (≈ 3.23 µM) | – | – | – | – | – | – |
| CO[C@H]1/C=C/O[C@@]2(C)Oc3c(C)c(O)c4c(O)c(c(/C=N/N5CCN(C)CC5)c(O)c4c3C2=O)NC(=O)/C(C)=C\C=C\[C@H](C)[C@H](O)[C@@H](C)[C@@H](O)[C@@H](C)[C@H](OC(C)=O)[C@@H]1C [RIF, rifampicin] | – | – | – | – | – | – | 3.3 (≈ 4.01 µM) | 1.4 (≈ 1.7 µM) | ×1.2 | 0.89 (≈ 1.08 µM) | ×1.3 | 0.96 (≈ 1.17 µM) | 0.76 (≈ 0.924 µM) | – | – | – | – | – |
| CCCCCCCCCCCCC1CCP(=O)(OC)OC(C)=C1C(=O)OC (stereo not drawn) [CyC8β] | active on infected macrophages only | – | >200 | 3.2 ± 0.16 | 32.0 ± 1.5 | very weak inhibitory effects | – | – | – | – | – | – | – | – | – | – | – | – |
| NNC(=O)c1ccncc1 [INH, isoniazid] | – | – | – | – | – | – | 2.9 (≈ 21.1 µM) | 0.76 (≈ 5.54 µM) | ×1.2 | 1.8 (≈ 13.1 µM) | ×1.3 | 1.9 (≈ 13.9 µM) | 1.4 (≈ 10.2 µM) | – | – | – | – | – |
| CCCCCCOc1nn(-c2ccc(Oc3ccccc3)cc2)c(=O)o1 [HpPPOX] | active on infected macrophages only | – | 3.5 | 61.8 ± 4.7 | 73.8 ± 1.0 | – | – | – | – | – | – | – | – | – | – | – | – | – |
| CCCCCCCCCCCCCCCCOP1(=O)OCCC(C(=O)OC)=C(C)O1 (stereo not shown) [CyC17] | no activity | efficiently block M. tuberculosis growth in vitro | 0.98 | 66.4 ± 4.5 | 95.4 ± 2.6 | strong dose-dependent inhibition; also recorded: strong inhibitory effect | 9.6 (≈ 21.5 µM) | – | – | – | ×1.1 | – | – | 0.56 (≈ 1.25 µM) | 0.6 (≈ 1.34 µM) | only active against extracellularly growing M. tuberculosis strain | 0.65 (≈ 1.46 µM) | – |
| COc1nn(-c2cccc(Oc3ccccc3)c2)c(=O)o1 [MmPPOX] | – | – | 3.1 | 54.1 ± 1.5 | 82.0 ± 3.8 | – | – | – | – | – | – | – | – | – | – | – | – | – |
| CCCCCCCCCCC1CCP(=O)(OC)OC(C)=C1C(=O)OC (stereo not drawn) [CyC7α] | active on infected macrophages only | – | 5.0 | 47.4 ± 0.81 | 81.4 ± 1.6 | strong dose-dependent inhibition | – | – | – | – | – | – | – | – | – | – | – | – |
| CCCCCCOc1nn(-c2ccccc2)c(=O)o1 [HPOX] | no activity | efficiently block M. tuberculosis growth in vitro | 2.9 | 58.5 ± 1.4 | 93.8 ± 5.7 | strong inhibitory effect | 18.4 (≈ 70.1 µM) | 8.4 (≈ 32 µM) | ~1.5 × | 12.2 (≈ 46.5 µM) | – | – | – | – | – | only active against extracellularly growing M. tuberculosis strain | – | 2.2 |
